Source: US20080221203A1, “Use of Agonists and Antagonists of Beta Adrenoceptors for Treating Arterial Disease” (UNIVERSITY CATHOLIQUE DE LOUVAIN, priority 2004, published 2008)
“Also recorded” adds a separate entry of the source. Like-named read-outs stand apart in the source and are kept apart here. No end group written: not given here.

Columns and labels:
[1] = tested on: human coronary microarteries; assay: Videomicroscopy of relaxation of pre-constricted, pressurized human coronary microarteries; assay type: cell-based; settings: for relaxation of vessels without functional endothelium, % of the maximum KCl-evoked contraction: de-endothelialized / endothelium destroyed microarteries; for relaxation, % of the maximum ET-1-evoked contraction: agonist alone; for relaxation in the presence of bupranolol: beta1-2-3 antagonist bupranolol; for relaxation, % of the maximum ET-1-evoked contraction, in the presence of nadolol: pre-treatment with beta1-2 antagonist nadolol; for relaxation of de-endothelialized vessels in the presence of nadolol: de-endothelialized microarteries; for relaxation, % of the maximum KCl-evoked contraction: pre-constricted with high (50 mmol/L) KCl, functional endothelium
Experimental: Vessels were cannulated with dual glass micropipettes and secured with 10-0 nylon monofilament sutures in a Plexiglas isolated organ chamber circulated with oxygenated PSS (37° C.) and placed on an inverted microscope (Axiovert S100, Zeiss, Germany) connected to a CCD camera. Microvessels were pressurized with a PSS-filled burette manometer at 60 mmHg (a pressure chosen to avoid stretch-dependent effects typically manifested at higher pressures) in a no-flow state. Digitized imaging (IONOPTIX Corporation, Milton, Mass.) allowed continuous monitoring of vessel external diameter. All experiments were carried out in the presence of cyclooxygenase inhibitor (indomethacin, 10 μmol/L). After 30-45 min equilibration, vessels were contracted with high KCl solution (PSS, 50 mmol/L KCl replacing NaCl stoechiometrically). At the maximum of contraction, vasorelaxation with Substance P (100 nmol/L) was systematically tested to assess the presence of a functional endothelium. In some experiments, the endothelium was selectively destroyed by an air bolus. All reagents were added in the bathing solution.

[2] = tested on: cultured endothelial cells; assay: NO release in cultured endothelial cells; assay type: cell-based; settings: for NO release in the presence of L-NAME: 10 μM; for NO release: at 10 μM
Experimental: (§1) Human and rat cardiac coronary resistance microarteries (70-170μ diameter) were mounted in dual glass micropipettes chambers in no-flow state and constant pressure for vasomotion analysis by videomicroscopy. In addition, calcium transients and NO release were measured in cultured endothelial cells with an amperometric electrode and Fura-2 fluorescence, respectively. Phosphorylation of eNOS was measured in the same cells with phospho-specific antibodies.

eNOS = eNOS Threonine 495 phosphorylation in cultured endothelial cells (phospho-specific antibodies); assay type: cell-based
Experimental: as §1

[3] = tested on: cultured endothelial cells; assay: Calcium transients (Ca fluorescence) in cultured endothelial cells; assay type: cell-based; settings: for Ca signal increase after pre-treatment with nadolol: beta1-2 antagonist nadolol; for Ca signal increase after pre-treatment with bupranolol: combined beta1-2-3 antagonist bupranolol; for increase of Ca fluorescence: endothelial cells, compound alone
Experimental: as §1

[4] = tested on: rat coronary microvessels; assay: Videomicroscopy of relaxation of rat coronary microvessels; assay type: cell-based; settings: for max relaxation, % of PGF2alpha pre-contracted tone: at 10 μM
Experimental: as §1

[5] = tested on: coronary microarteries from mice deficient for the beta3-adrenoceptor; assay: Relaxation of coronary microarteries from mice deficient for the beta3-adrenoceptor; assay type: cell-based, mouse
Experimental: as §1, with “antibodies. […] Relaxation to Nebivolol was blunted in coronary microarteries from mice deficient for the beta3-adrenoceptor (C).” for “antibodies.”

aortic rings = assay: Mouse aortic ring angiogenesis (new tubes formation); assay type: cell-based; settings: for angiogenic response in beta3 adrenoceptor deficient rings: aortic rings from beta 3-KO mice
human beta3 AR = assay: Akt and eNOS phosphorylation in neonatal cardiac myocytes with adenoviral expression of human beta3 AR; assay type: cell-based, mouse; settings: agonist-mediated activation, Isoproterenol+nadolol; myocytes from C57BI6 control and cardiac eNOS transgene mice
[6] = tested on: human coronary microarteries; assay: Measurement of smooth muscle membrane potential of isolated human coronary microvessels; assay type: cell-based; settings: in the presence of NO synthase and cyclooxygenase inhibition
Experimental: Human right atrial and left ventricular tissue specimens obtained from patients undergoing cardiac surgery were placed in physiological saline solution (PSS) containing (mmol/L): NaCl, 120; KCl, 5.9; NaHCO3, 25; dextrose, 17.5; CaCl2, 2.5; MgCl2, 1.2; NaH2PO4, 1.2 (pH 7.4) maintained at 0-4° C., and carefully dissected to isolate microarteries. Coronary microarteries (70-170 μm diameter, 1-2 mm length), rapidly cleaned of adherent connective tissue were either kept at −80° C. until homogenization or used for functional experiments.
Microvessels were mounted in an organ bath continuously circulated (6 mL/min) with oxygenated PSS at 37° C. All experiments were performed in the presence of a NO synthase inhibitor (L-w-nitroarginine, 100 μmol/L) and indomethacin (10 μmol/L). After 60 minutes of equilibration, measurement of the smooth muscle membrane potential (Em) was made with a glass microelectrode (Clark, Electromedical instruments, type GC 120F-15) filled with 1.5M KCl. The input resistance of the microelectrodes varied between 50 and 80 MΩ. Differences in electric potential were measured with a Dagan amplifier (8100, Minneapolis, Minn., U.S.A.) and recorded. Criteria for a successful impalement were (1) an abrupt drop in voltage on entry of microelectrode into the cell, (2) stable membrane potential for at least 2 min, and (3) a sharp return to zero on withdrawal of the electrode.

[7] = rat microvessels, listed as Nebivolol
[8] = ET-1 pre-constricted, intact endothelium
[9] = ET-1 pre-constricted, intact endothelium, listed as isoproterenol
[10] = ET-1 pre-constricted, intact endothelium, listed as BRL 37344

OC(CNCC(O)C1CCc2cc(F)ccc2O1)C1CCc2cc(F)ccc2O1 (stereo not drawn) [nebivolol]
dependence of relaxation on endothelium (Example 2) ([1]; human coronary microvessels): dependent on a functional endothelium | relaxation under NOS inhibition (Example 2) ([1]; human coronary microvessels, NOS inhibition): sensitive to NOS inhibition | relaxation in the presence of nadolol (Example 2) ([1]; human coronary microvessels, nadolol): insensitive | NO release in the presence of L-NAME [2]: 26.5±4.3 nmoles/μg prot | NO release in the presence of L-NAME ([2]; listed as Nebivolol): sensitive to L-Name | NO release [2]: 117 nmol/µg protein | NO release ([2]; listed as Nebivolol): evoked a release of NO | phosphorylation of Threonine 495 on eNOS (eNOS): dephosphorylated | phosphorylation of Threonine 495 on eNOS (eNOS; listed as Nebivolol): time-dependent dephosphorylation | Ca signal increase after pre-treatment with nadolol [3]: no effect | Ca signal increase after pre-treatment with nadolol ([3]; listed as Nebivolol): unchanged | Ca signal increase after pre-treatment with bupranolol [3]: significantly blunted | Ca signal increase after pre-treatment with bupranolol ([3]; listed as Nebivolol): sensitive to bupranolol | increase of Ca fluorescence [3]: 91.8±23.7% | increase of Ca fluorescence ([3]; listed as Nebivolol): cytosolic calcium increase | max relaxation, % of PGF2alpha pre-contracted tone [4]: dose-dependent-relaxation | max relaxation, % of PGF2alpha pre-contracted tone ([4]; listed as Nebivolol): 86±6% | relaxation under NOS inhibition ([4]; rat microvessels, NOS inhibition): sensitive to NOS inhibition | relaxation in the presence of bupranolol ([4]; rat microvessels): sensitive to bupranolol | relaxation in the presence of bupranolol [4, 7]: prevented | relaxation in the presence of nadolol ([4]; rat microvessels): not to nadolol | relaxation in the presence of nadolol [4, 7]: unaffected | relaxation in microvessels from mice genetically deficient in beta3-AR [5]: blunted

CCOC(=O)COc1ccc2c(c1)C[C@@H](NC[C@H](O)c1cccc(Cl)c1)CC2 [SR58611]
new tubes formation compared to untreated controls (aortic rings; aortic rings from C57BI6 mice treated in vitro): time-dependent increase in new tubes formation | angiogenic response in beta3 adrenoceptor deficient rings (aortic rings): completely lost

VEGF
angiogenic response in beta3 adrenoceptor deficient rings (aortic rings): angiogenic response

NC[C@H](O)c1ccc(O)c(O)c1 [norepinephrine]
relaxation, % of ET-1 contraction ([1]; 1 micromol/l, intact endothelium, pretreated with nadolol and phentolamine): 41.4±7%

Substance P: endothelium-specific agonist (RPKPQQFFGLM; ends and bridges not checked; UniProt P20366 58-68, looked up)
relaxation of vessels without functional endothelium, % of the maximum KCl-evoked contraction [1]: absence of relaxation

CC(C)NCC(O)c1ccc(O)c(O)c1 (stereo not drawn) [isoprenaline]
relaxation, % of the maximum ET-1-evoked contraction [1, 8]: ~50% | relaxation, % of the maximum ET-1-evoked contraction [1, 9]: by half | relaxation in the presence of bupranolol [1, 8]: blocked; also recorded: abolished | relaxation in the presence of bupranolol [1, 9]: fully abrogated | relaxation, % of the maximum ET-1-evoked contraction, in the presence of nadolol [1, 8]: insensitive; also recorded: resistant | relaxation, % of the maximum ET-1-evoked contraction, in the presence of nadolol [1, 9]: unaffected | relaxation of vessels without functional endothelium, % of the maximum KCl-evoked contraction [1]: 21.0±6.3% | relaxation of de-endothelialized vessels in the presence of nadolol ([1]; nadolol, listed as Iso): abrogated | relaxation of de-endothelialized vessels in the presence of nadolol ([1]; nadolol, listed as isoproterenol): 1.4±0.5% | phosphorylation of Akt and downstream eNOS (human beta3 AR): increased phosphorylation of Akt and downstream eNOS

C[C@H](Cc1ccc(OCC(=O)O)cc1)NC[C@H](O)c1cccc(Cl)c1 [BRL37344]
relaxation of ET-1 preconstricted vessels under NO synthase inhibition ([1]; ET-1 pre-constricted, L-w-nitroarginine): unaffected | relaxation, % of the maximum ET-1-evoked contraction [1, 8]: ~50% | relaxation, % of the maximum ET-1-evoked contraction [1, 10]: 52.3±13.2% | relaxation in the presence of bupranolol [1, 8]: blocked; also recorded: abolished | relaxation in the presence of bupranolol [1, 10]: fully abrogated | relaxation, % of the maximum ET-1-evoked contraction, in the presence of nadolol [1, 8]: insensitive; also recorded: resistant | relaxation, % of the maximum ET-1-evoked contraction, in the presence of nadolol [1, 10]: 54.9±16.8% | max relaxation, % of ET-1 pre-contracted tone ([1]; Example 2, nebivolol at 10 μM): reproduced | relaxation of KCl-preconstricted vessels under NO synthase inhibition ([1]; KCl pre-constricted, L-w-nitroarginine 100 μmol/L): totally abrogated | relaxation of vessels without functional endothelium, % of the maximum KCl-evoked contraction [1]: absent; also recorded: not observed; also recorded: failed to relax | relaxation, % of the maximum KCl-evoked contraction [1]: 15.5% | relaxation, % of the maximum KCl-evoked contraction ([1]; listed as BRL 37344): 15.5±5.3% | smooth muscle membrane potential [6]: significant hyperpolarization
